# ± gives the standard deviation of the averaged measurements.
# How the values were obtained:
# Details in all cases: 72 h
# [1] = test system: Vero E6; assay: relative viability EC50 (midpoint between 100% and the lowest measured viability); higher = less toxic
# [2] = test system: Calu-3; assay: as above
# [3] = test system: HepG2; assay: as above
# [4] = test system: Caco-2; assay: as above
# [5] = test system: Vero E6; assay: drug sensitivity score (DSS) for viability; higher = more toxic; extreme values may be limits of the assay
# [6] = test system: Calu-3; assay: as above
# [7] = test system: HepG2; assay: as above
# [8] = test system: Caco-2; assay: as above
# [9] = test system: Vero E6; assay: cell viability relative to DMSO; higher = less toxic
# [10] = test system: Calu-3; assay: as above
# [11] = test system: HepG2; assay: as above
# [12] = test system: Caco-2; assay: as above
# [13] = test system: U2OS; assay: relative viability EC50 (midpoint between 100% and the lowest measured viability); higher = less toxic
# [14] = test system: U2OS; assay: drug sensitivity score (DSS) for viability; higher = more toxic; extreme values may be limits of the assay
# [15] = test system: U2OS; assay: cell viability relative to DMSO; higher = less toxic
SMILES,relative viability EC50 [1] [µM],relative viability EC50 [2] [µM],relative viability EC50 [3] [µM],relative viability EC50 [4] [µM],drug sensitivity score [5],drug sensitivity score [6],drug sensitivity score [7],drug sensitivity score [8],cell viability ([9]; 1 nM) [%],cell viability ([9]; 10 nM) [%],cell viability ([9]; 100 nM) [%],cell viability ([9]; 1000 nM) [%],cell viability ([9]; 10000 nM) [%],cell viability ([10]; 1 nM) [%],cell viability ([10]; 10 nM) [%],cell viability ([10]; 100 nM) [%],cell viability ([10]; 1000 nM) [%],cell viability ([10]; 10000 nM) [%],cell viability ([11]; 1 nM) [%],cell viability ([11]; 10 nM) [%],cell viability ([11]; 100 nM) [%],cell viability ([11]; 1000 nM) [%],cell viability ([11]; 10000 nM) [%],cell viability ([12]; 1 nM) [%],cell viability ([12]; 10 nM) [%],cell viability ([12]; 100 nM) [%],cell viability ([12]; 1000 nM) [%],cell viability ([12]; 10000 nM) [%],relative viability EC50 [13] [nM],drug sensitivity score [14],cell viability ([15]; 1 nM) [%],cell viability ([15]; 10 nM) [%],cell viability ([15]; 100 nM) [%],cell viability ([15]; 1000 nM) [%],cell viability ([15]; 10000 nM) [%]
CC(C)(C#N)c1ccc(N2C(=O)OCc3cnc4ccc(-c5cnc6ccccc6c5)cc4c32)cc1,> 10,0.939,> 10,> 10,0.5,7.1,0,3.7,109,104,103,97.4,84.6,110,97.3,110,68.3,41.5,116,113,96.4,100,89.6,107,108,102,75,77.4,–,–,–,–,–,–,–
CC1=C(C(=O)Nc2cc3cn[nH]c3cc2F)C(c2ccc(C(F)(F)F)cc2)CC(=O)N1 (stereo not given),> 10,–,> 10,> 10,2,–,0,0,102,104,101,82.5,84.4,–,–,–,–,–,100,103,104,95.6,92,83,89.6,91.3,99.1,102,> 10000,0,94.9,97.9,92.3,96.8,86.3
CC1Oc2cc(cnc2N)-c2c(nn(C)c2C#N)CN(C)C(=O)c2ccc(F)cc21 (stereo not given),> 10,–,–,> 10,3.35 ± 0.35,4.85 ± 1.1,2.5 ± 1.6,0,103 ± 4.9,92 ± 6.6,90.5 ± 2.6,80.2 ± 0.28,83.2 ± 7.3,105 ± 5.7,95.5 ± 3.8,88.7 ± 2.4,74.8 ± 4.3,78.7 ± 7.5,95 ± 4.1,101 ± 9.8,99.3 ± 4.7,87.5 ± 6.2,72.2 ± 6.9,89.2 ± 7.6,97 ± 8,96.15 ± 0.21,91.6 ± 4.1,83.4 ± 7.8,> 10000,0.7 ± 0.99,97.8 ± 2.6,103.8 ± 0.64,97.2 ± 2.4,96.6 ± 1.4,83.5 ± 8.1
Cn1cc(-c2[nH]c3cc(NC(=O)[C@H](N)C4CCCCC4)cc4c3c2C=NNC4=O)cn1,> 10,–,0.493,3.48,0.6,6.5,10.3,3.7,95.4,99.4,98.3,95.3,84.5,109,98.7,114,66.7,51.2,97.3,103,91.5,50.9,30.7,106,98.2,97.8,104,25.9,324,17.1,99.9,98.4,96.3,8.5,4.2
NC(=O)c1cnc2[nH]ccc2c1N[C@@H]1[C@@H]2CC3C[C@H]1C[C@@](O)(C3)C2,> 10,–,3.87,> 10,0,–,2.3,0,95.4,97.6,99.6,107,101,–,–,–,–,–,113,112,107,109,47,101,101,90.5,104,113,–,2.6,96.4,97.1,96.5,93.1,67.2
"Clc1cccc(/C=N/N=C/c2cccc(Cl)c2)c1 [3,3'-dichlorobenzaldazine]",> 10,> 10,> 10,> 10,0,0,0.3,0,99.6,103,99.5,98.9,99.5,107,93.9,96.7,97.5,96.1,94.8,95.6,101,100,84.5,103,99.1,105,94.7,103,–,–,–,–,–,–,–
CC(=O)N1CCC[C@H]1C(=O)N[C@@H](Cc1cnc[nH]1)C(=O)N[C@@H](CO)C(=O)N[C@@H](CS)C(=O)N[C@@H](CC(N)=O)C(N)=O [ATN-161],> 10,> 10,> 10,> 10,0,0,0,0,92.9,103,96.9,100,108,102,102,101,107,97.2,102,104,106,93.4,106,107,96.6,97.5,103,104,–,–,–,–,–,–,–
C[C@@H]1COCCN1c1cc(C2([S@](C)(=N)=O)CC2)nc(-c2ccnc3[nH]ccc23)n1 [AZD6738],> 10,–,0.998,2.65,1.3,3.9,7.6,3.1,98.8,94.5,92.1,90.9,78.5,92.8,96,108,92.7,50.2,94.5,88.6,104,67.7,35.6,92.8,100,103,96.7,49.8,2880,5.1,94.1,101,100,96.8,16.8

# From the supplement of paper PMC13380429
